According to PubChem BioAssay (NCI):
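How tested: cells in 96-well plates exposed to compound for 48 hours at five concentrations. Definition used: TGI = concentration required for complete inhibition of growth.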

Columns and labels:
Assay in all cases: NCI anticancer screen, dose series, 48 h
OVCAR-4 ovarian = tested on: OVCAR-4 ovarian
NCI-H522 lung = tested on: NCI-H522 lung
SK-MEL-5 melanoma = tested on: SK-MEL-5 melanoma
RXF-631 renal = tested on: RXF-631 renal
M19-MEL melanoma = tested on: M19-MEL melanoma
KM20L2 colon = tested on: KM20L2 colon
KM12 colon = tested on: KM12 colon
OVCAR-5 ovarian = tested on: OVCAR-5 ovarian
HOP-62 NSCLC = tested on: HOP-62 NSCLC
LXFL 529 NSCLC = tested on: LXFL 529 NSCLC
UACC-62 melanoma = tested on: UACC-62 melanoma
SNB-19 CNS = tested on: SNB-19 CNS
SF-295 CNS = tested on: SF-295 CNS
HCT-116 colon = tested on: HCT-116 colon
A549 NSCLC = tested on: A549 NSCLC
CCRF-CEM leukemia = tested on: CCRF-CEM leukemia
EKVX NSCLC = tested on: EKVX NSCLC
A498 renal = tested on: A498 renal
MOLT-4 leukemia = tested on: MOLT-4 leukemia
U251 CNS = tested on: U251 CNS
M14 melanoma = tested on: M14 melanoma
IGROV1 ovarian = tested on: IGROV1 ovarian
DMS 114 small cell lung = tested on: DMS 114 small cell lung
OVCAR-8 ovarian = tested on: OVCAR-8 ovarian
786-0 renal = tested on: 786-0 renal
HCC-2998 colon = tested on: HCC-2998 colon
TK-10 renal = tested on: TK-10 renal
NCI-H226 lung = tested on: NCI-H226 lung
LOX IMVI melanoma = tested on: LOX IMVI melanoma
OVCAR-3 ovarian = tested on: OVCAR-3 ovarian
NCI-H23 lung = tested on: NCI-H23 lung
SK-MEL-2 melanoma = tested on: SK-MEL-2 melanoma
SNB-75 CNS = tested on: SNB-75 CNS
SK-MEL-28 melanoma = tested on: SK-MEL-28 melanoma
SNB-78 CNS = tested on: SNB-78 CNS
UACC-257 melanoma = tested on: UACC-257 melanoma
SN12C renal = tested on: SN12C renal
RPMI-8226 leukemia = tested on: RPMI-8226 leukemia
MALME-3M melanoma = tested on: MALME-3M melanoma
DLD-1 colon = tested on: DLD-1 colon
K-562 leukemia = tested on: K-562 leukemia
SK-OV-3 ovarian = tested on: SK-OV-3 ovarian
ACHN renal = tested on: ACHN renal
SF-268 CNS = tested on: SF-268 CNS
NCI-H460 lung = tested on: NCI-H460 lung
DMS 273 small cell lung = tested on: DMS 273 small cell lung
HOP-18 NSCLC = tested on: HOP-18 NSCLC
HT29 colon = tested on: HT29 colon
SW-620 colon = tested on: SW-620 colon
HL-60(TB) leukemia = tested on: HL-60(TB) leukemia
UO-31 renal = tested on: UO-31 renal
CAKI-1 renal = tested on: CAKI-1 renal
COLO 205 colon = tested on: COLO 205 colon
HCT-15 colon = tested on: HCT-15 colon
HOP-92 NSCLC = tested on: HOP-92 NSCLC
SF-539 CNS = tested on: SF-539 CNS
SR leukemia = tested on: SR leukemia
XF 498 CNS = tested on: XF 498 CNS
RXF 393 renal = tested on: RXF 393 renal
MCF7 breast = tested on: MCF7 breast
MDA-N = tested on: MDA-N
MDA-MB-435 = tested on: MDA-MB-435
BT-549 breast = tested on: BT-549 breast
DU-145 prostate = tested on: DU-145 prostate
HS 578T breast = tested on: HS 578T breast
MDA-MB-231 breast = tested on: MDA-MB-231 breast
T-47D breast = tested on: T-47D breast
NCI/ADR-RES ovarian = tested on: NCI/ADR-RES ovarian
PC-3 prostate = tested on: PC-3 prostate

Measured: TGI

O=C(O)CN=c1c2ccccc2n(O)c2ccccc12
26.9 µM: K-562 leukemia
53.6 µM: CCRF-CEM leukemia
43 µM: HL-60(TB) leukemia
> 100 µM: OVCAR-4 ovarian | NCI-H522 lung | SK-MEL-5 melanoma | RXF-631 renal | M19-MEL melanoma | KM20L2 colon | KM12 colon | OVCAR-5 ovarian | HOP-62 NSCLC | LXFL 529 NSCLC | UACC-62 melanoma | SNB-19 CNS | SF-295 CNS | HCT-116 colon | A549 NSCLC | EKVX NSCLC | A498 renal | MOLT-4 leukemia | U251 CNS | M14 melanoma | IGROV1 ovarian | DMS 114 small cell lung | OVCAR-8 ovarian | 786-0 renal | HCC-2998 colon | TK-10 renal | NCI-H226 lung | LOX IMVI melanoma | OVCAR-3 ovarian | NCI-H23 lung | SK-MEL-2 melanoma | SNB-75 CNS | SK-MEL-28 melanoma | SNB-78 CNS | UACC-257 melanoma | SN12C renal | RPMI-8226 leukemia | MALME-3M melanoma | DLD-1 colon | SK-OV-3 ovarian | ACHN renal | SF-268 CNS | NCI-H460 lung | DMS 273 small cell lung | HOP-18 NSCLC | HT29 colon | SW-620 colon | UO-31 renal | CAKI-1 renal | COLO 205 colon | HCT-15 colon

O=C(O)C1CC2CC(=O)C1C2 (configuration not stated)
> 100 µM: OVCAR-4 ovarian | NCI-H522 lung | HOP-92 NSCLC | SK-MEL-5 melanoma | RXF-631 renal | M19-MEL melanoma | KM20L2 colon | KM12 colon | OVCAR-5 ovarian | HOP-62 NSCLC | LXFL 529 NSCLC | UACC-62 melanoma | SNB-19 CNS | SF-295 CNS | HCT-116 colon | A549 NSCLC | CCRF-CEM leukemia | EKVX NSCLC | SF-539 CNS | A498 renal | MOLT-4 leukemia | U251 CNS | M14 melanoma | IGROV1 ovarian | OVCAR-8 ovarian | 786-0 renal | TK-10 renal | NCI-H226 lung | SR leukemia | LOX IMVI melanoma | OVCAR-3 ovarian | NCI-H23 lung | XF 498 CNS | SK-MEL-2 melanoma | SNB-75 CNS | SK-MEL-28 melanoma | SNB-78 CNS | UACC-257 melanoma | RXF 393 renal | SN12C renal | RPMI-8226 leukemia | MALME-3M melanoma | DLD-1 colon | K-562 leukemia | SK-OV-3 ovarian | ACHN renal | SF-268 CNS | NCI-H460 lung | DMS 273 small cell lung | HOP-18 NSCLC | HT29 colon | SW-620 colon | HL-60(TB) leukemia | UO-31 renal | CAKI-1 renal | COLO 205 colon

CCCc1cc(-c2ccc(-c3cc(CCC)c(C=O)[nH]3)s2)[nH]c1C=O
> 87.9 µM: RXF 393 renal
> 59.7 µM: SK-MEL-2 melanoma
65 µM: DMS 114 small cell lung
> 19.9 µM: HT29 colon
22.7 µM: A549 NSCLC
> 92.4 µM: SF-295 CNS
58.7 µM: OVCAR-5 ovarian
> 86.1 µM: NCI-H23 lung
> 100 µM: OVCAR-4 ovarian | HOP-92 NSCLC | SK-MEL-5 melanoma | M19-MEL melanoma | MCF7 breast | KM12 colon | HOP-62 NSCLC | MDA-N | LXFL 529 NSCLC | UACC-62 melanoma | SNB-19 CNS | HCT-116 colon | CCRF-CEM leukemia | MDA-MB-435 | EKVX NSCLC | SF-539 CNS | A498 renal | MOLT-4 leukemia | U251 CNS | BT-549 breast | M14 melanoma | IGROV1 ovarian | OVCAR-8 ovarian | 786-0 renal | DU-145 prostate | HS 578T breast | TK-10 renal | NCI-H226 lung | SR leukemia | OVCAR-3 ovarian | XF 498 CNS | MDA-MB-231 breast | SNB-75 CNS | SK-MEL-28 melanoma | SNB-78 CNS | T-47D breast | UACC-257 melanoma | SN12C renal | RPMI-8226 leukemia | NCI/ADR-RES ovarian | MALME-3M melanoma | DLD-1 colon | K-562 leukemia | SK-OV-3 ovarian | ACHN renal | SF-268 CNS | NCI-H460 lung | DMS 273 small cell lung | PC-3 prostate | HOP-18 NSCLC | SW-620 colon | UO-31 renal | CAKI-1 renal | COLO 205 colon | HCT-15 colon
> 48.8 µM: HL-60(TB) leukemia
22.9 µM: HCC-2998 colon
32.1 µM: LOX IMVI melanoma
17.9 µM: NCI-H522 lung
